Data on 2 molecules can be found in patent US20050165070A1, “Compositions with a biostimulating activity” (priority 2002, published 2005).

The test system of experiment [1] is peppers cv. Pathos. Briefly: Biostimulating effect on transplanted pepper seedlings in tunnel, production yield. The following applies: 10 g/hl; for Berries kg per lot: repeated every 10 days, harvest July 29-August 29; for Increase (%) of berries kg per lot: versus not treated Thesis E. The class given is in vivo. The text has this: The whole mixture was brought to a volume of 1 liter by the addition of water, in order to obtain solutions of each compound with a concentration of 50 g/liter. Determination of the amplification of the biostimulating effect obtained by applying compound (I) in the presence of a solution of proline. Seedlings of peppers cv. Pathos were transplanted in a tunnel (April 16, AT). The lots were distributed according to the random block scheme with 5 repetitions per thesis. Each repetition consisted of 15 plants. At the moment of transplanting, the seedlings have a common degree of vegetative development. […] Said treatment was subsequently repeated every 10 days, in a preventive manner, in order to oppose any possible thermal or water stress or stress due to vegetative development. Harvesting was effected from July 29 for the following 30 days, and a production increase was registered in theses B and D, with respect to theses A and C, as indicated in Table 2. The yields are obtained from the average production obtained during the above harvesting period (July 29-August 29).

Experiment [2] concerns courgettes cv. Diamone. Briefly: Biostimulating activity on transplanted courgette seedlings in field, fruit yield. The class given is in vivo. To be noted: for Fruit per lot: treatment repeated every 10 days, harvest June 11-August 27, average per lot; for Increase (%) of fruit per lot: with respect to non-treated Thesis F. The text has this:
The following examples are provided for merely illustrative purpose and in no way intend to limit the scope of the present invention.
When the biological activity experimentally found is higher than the value of E, said activity should be considered as a synergic effect.
An amount of 50 g of each compound under examination (thiazolidine-4-carboxylic acid (compound I) and N-acyl-thiazolidine-4-carboxylic acid (compound II)) were dispersed in water (800 cc) and vigorously stirred. An excess of 5%, with respect to the stoichiometric quantity, of sodium bicarbonate, was then added in portions. 150 g of a non-ionic surface-active agent were added to favour application to the leaves. The whole mixture was brought to a volume of 1 liter by the addition of water, in order to obtain solutions of each compound with a concentration of 50 g/liter.
Assessment of the biostimulating activity of compound (I), compound (II) and their synergic mixture.
Seedlings of courgettes cv. Diamone, sown and cultivated in a hot greenhouse, were transplanted in a field (May 11, Leggiuno, (Varese)—Italy).
The theses were randomly arranged in lots with four repetitions for each thesis. Each lot consisted of six plants in rows situated at a distance of 1 meter from each other, and at a distance of 1 meter from each other in the same row.
Weeding was performed before the transplant, using 1 kg/ha of trifluralin (volume 550 l/ha).
At the moment transplanting, the seedlings have a common degree of vegetative development.
In order to minimize transplant stress, the seedlings planted were treated respectively with: • Thesis A: with compound (I) (ATC) at a dose of 5 g/hl; • Thesis B: with compound (I) (ATC) at a dose of 10 g/hl; • Thesis C: with compound (II) (AATC) at a dose of 5 g/hl; • Thesis D: with compound (II) (AATC) at a dose of 10 g/hl; • Thesis E: with compound (I) (ATC) at a dose of 5 g/hl in a mixture with compound (II) (AATC) at a dose of 5 g/hl; • Thesis F: no biostimulating treatment.
Said treatment was subsequently repeated every 10 days, in a preventive manner, in order to oppose any possible thermal or water stress or stress due to vegetative development. Harvesting was effected from June 11 to August 27, and the yield increases indicated in Table 1, were registered in the treated theses (A, B, C, D, E), with respect to the non-treated Thesis F. The yields are obtained from the average amount of fruit obtained in each lot during the above-mentioned harvesting period (June 11-August 27).

On to `O=C(O)[C@@H]1CSCN1` [ATC, R-(−)-thiazolidine-4-carboxylic acid], for which, in experiment [1], the “Berries kg per lot” value was 25.80 kg per lot and the “Increase (%) of berries kg per lot” value is “+4.5%”. Moreover, in experiment [2] (5 g/hl), the Fruit per lot was determined as 100 and the “Increase (%) of fruit per lot” value was “+3.1%”. In experiment [2] (10 g/hl), the Fruit per lot came to 105 and the “Increase (%) of fruit per lot” value is on record as “+8.2%”.

Regarding `CC(=O)N1CSCC1C(=O)O` (stereo not drawn) [AATC, N-acetylthiazolidine-4-carboxylic acid], in experiment [1], the “Berries kg per lot” value was determined as 26.40 kg per lot and the “Increase (%) of berries kg per lot” value was “+6.9%”. Moreover, in experiment [2] (5 g/hl), the Fruit per lot is given as 102 and the “Increase (%) of fruit per lot” value was “+5.2%”. Moreover, in experiment [2] (10 g/hl), the Fruit per lot is listed as 109 and the “Increase (%) of fruit per lot” value is on record as “+12.4%”.
